Each structure is given as a SMILES string.

In this test the test system is Mycobacterium tuberculosis. The test is described as follows: Anti-mycobacterial activity against Mycobacterium tuberculosis mc2 6206 expressing autoluminescent luciferase infected in human THP-1 cells assessed as reduction in bacterial burden pretreated for 24 hrs followed by bacterial infection measured for 5 days post-infection with re-current replacement of media with compound for every 2 days by luminescence based assay. In kind it is functional, organism-based. Conditions: dose 0.5-5 µM, time 6.0 day.

Consider `CCOc1ccc2c(c1)c[n+](CCO)c1ccc(F)cc21.[Br-]`, for which the Activity entry was “Dose-Dependent Effect”.

The values are drawn from ChEMBL document CHEMBL5523733, “Small Molecule Targeting PPM1A Activates Autophagy for Mycobacterium tuberculosis Host-Directed Therapy” (J Med Chem, 2024).
